From US20050112706A1, “Diagnostic and prognostic methods for prostate cancers” (priority 2002, published 2005)

Columns and labels:
[1] = tested on: HPE cells; test: 2D difference gel electrophoresis (DIGE) of hormone-treated HPE cells; format: cell-based, human; conditions: 10^−8 M DHT or 10^−5 M flutamide vs (−) hormone
From the text: FIGS. 9A-B. Identification of androgen- and flutamide-regulated proteins by 2D difference gel electrophoresis. […] Whole cell proteins were extracted, labeled with the dyes Cy2 (ex 480, em 530), Cy3 (ex 540, em 590), and Cy5 (ex 620, em 680) respectively. The labeled proteins were mixed together and subjected to a pH gradient of pH 4 to pH 7 in the first dimension and separated by PAGE in the second dimension. […] The proteins were excised, subjected to in-gel tryptic digestion and analyzed by MS. The tryptic peptides were identified by searching the protein data bases such as the NCBInr and SWISS- PROT databases. EST databases were also searched with fragmentation data from tandem mass spectrometry when necessary.
Identification of antiandrogen-regulated genes. […] In this study, 8 proteins were identified by tryptic mapping and the sequences verified by partial amino acid sequencing of individual tryptic peptides (FIG. 9B). […] Of particular interest were calreticulin, DJ-1 and non-selenium glutathione peroxidase. Calreticulin binds to the AR DNA binding domain to block AR-activated transcription. Therefore, down-regulation of calreticulin expression would typically facilitate AR binding to the AR binding site to transactivate gene expression (Dedhar et al., 1994). Calreticulin also interacts with integrins during cell attachment and spreading (Coppolino and Dedhar, 1999) and a loss or decrease in calreticulin could potentially increase cell motility and increase HPE cell metastatic potential. The RNA binding protein regulatory subunit DJ-1 has oncogenic potential, transforming NIH3T3 cells in cooperation with ras (Nagakubo et al., 1997). DJ-1 also positively regulates AR-activated transcription by binding PIASx alpha and making it unavailable for the AR:PIASx alpha complex which functions to inhibit AR activation (Takahasi et al., 2001). Non-selenium glutathione peroxidase gene was initially identified as a KGF-regulated gene (Munz et al., 1997) and it is highly expressed in the hyperproliferative epithelium at the wound edge.

[2] = molecular target: mutant LNCaP AR (Homo sapiens, UniProt P10275, T878A); conditions: LNCaP cells, increasing concentrations of R1881 (10^−12 to 10^−6 M)
[3] = molecular target: endogenous AR (Homo sapiens, UniProt P10275)
Chain of endogenous AR (P10275 whole entry): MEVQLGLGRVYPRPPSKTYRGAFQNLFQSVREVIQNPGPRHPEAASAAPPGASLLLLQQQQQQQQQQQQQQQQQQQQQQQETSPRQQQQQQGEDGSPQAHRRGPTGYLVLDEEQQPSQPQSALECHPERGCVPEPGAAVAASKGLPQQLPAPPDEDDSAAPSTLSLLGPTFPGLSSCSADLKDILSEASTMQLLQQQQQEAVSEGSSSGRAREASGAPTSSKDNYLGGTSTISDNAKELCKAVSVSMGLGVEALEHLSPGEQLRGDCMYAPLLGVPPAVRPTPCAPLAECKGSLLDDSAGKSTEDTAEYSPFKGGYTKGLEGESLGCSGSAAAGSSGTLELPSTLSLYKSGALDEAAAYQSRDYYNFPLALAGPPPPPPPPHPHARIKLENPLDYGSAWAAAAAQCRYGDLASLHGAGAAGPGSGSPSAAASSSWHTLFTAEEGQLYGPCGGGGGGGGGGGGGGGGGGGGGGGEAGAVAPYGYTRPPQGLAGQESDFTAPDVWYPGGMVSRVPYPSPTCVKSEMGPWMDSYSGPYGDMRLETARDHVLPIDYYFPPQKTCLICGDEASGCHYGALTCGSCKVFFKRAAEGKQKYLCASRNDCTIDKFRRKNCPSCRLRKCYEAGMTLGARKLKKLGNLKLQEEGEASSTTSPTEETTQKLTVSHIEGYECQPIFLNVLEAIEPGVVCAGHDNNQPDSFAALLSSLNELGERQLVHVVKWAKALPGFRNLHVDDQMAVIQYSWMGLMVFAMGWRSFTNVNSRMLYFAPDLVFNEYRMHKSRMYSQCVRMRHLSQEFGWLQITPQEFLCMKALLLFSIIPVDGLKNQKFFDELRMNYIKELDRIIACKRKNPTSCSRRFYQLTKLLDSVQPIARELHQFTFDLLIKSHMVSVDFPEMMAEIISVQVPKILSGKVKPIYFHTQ

Chain of mutant LNCaP AR (P10275 whole entry T878A): as the sequence (P10275 whole entry) above, with T878A counted along it

SMILES | Calreticulin expression [1] | expression of actin [1] | expression of annexin V [1] | expression of glutathione S-transferase [1] | expression of vimentin [1] | concentration at which near maximal CAT activity was observed [2] | ARR2PB-activated CAT gene expression on addition of androgen [3] | CAT gene expression on addition of androgen [3]
C[C@]12CCC(=O)C[C@@H]1CC[C@@H]1[C@@H]2CC[C@]2(C)[C@@H](O)CC[C@@H]12 [DHT] | increased | down-regulated | down-regulated | down-regulated | down-regulated |  |  | 
C[C@]1(O)CC[C@H]2[C@@H]3CCC4=CC(=O)CCC4=C3C=C[C@@]21C [R1881] |  |  |  |  |  | 10^−8 M | did not increase these levels any further | did not increase CAT gene expression any further
